Measurements reported in the NIST ThermoML archive (doi:10.1016/j.jct.2012.11.002).
Numbers after ± are expanded uncertainties.

Details: Liquid, Vibrating tube method

CCOC(=O)C(C)O (racemic) [DL-ethyl lactate]
mass density [kg/m3]
Details	100 kPa	2500 kPa	5000 kPa	7500 kPa	10000 kPa	20000 kPa	30000 kPa	40000 kPa	50000 kPa	60000 kPa
283.15 K	1045.06 ± 0.93	1046.77 ± 0.94	1048.51 ± 0.95	1050.24 ± 0.95	1051.88 ± 0.96	1058.39 ± 1	1064.45 ± 1	1070.13 ± 1.1	1075.5 ± 1.1	1080.55 ± 1.2
288.15 K	1039.64 ± 0.92	1041.39 ± 0.93	1043.21 ± 0.93	1044.99 ± 0.94	1046.74 ± 0.95	1053.28 ± 0.99	1059.46 ± 1	1065.24 ± 1.1	1070.74 ± 1.1	1076.04 ± 1.2
293.15 K	1034.25 ± 0.91	1036.05 ± 0.91	1037.86 ± 0.92	1039.7 ± 0.93	1041.5 ± 0.94	1048.3 ± 0.97	1054.58 ± 1	1060.54 ± 1.1	1066.26 ± 1.1	1071.55 ± 1.1
298.15 K	1028.78 ± 0.9	1030.66 ± 0.9	1032.56 ± 0.91	1034.43 ± 0.92	1036.23 ± 0.93	1043.21 ± 0.96	1049.76 ± 1	1055.69 ± 1	1061.53 ± 1.1	1066.96 ± 1.1
303.15 K	1023.32 ± 0.89	1025.21 ± 0.89	1027.24 ± 0.9	1029.11 ± 0.91	1031 ± 0.91	1038.26 ± 0.95	1044.91 ± 0.98	1051.19 ± 1	1056.95 ± 1.1	1062.52 ± 1.1
308.15 K	1017.84 ± 0.87	1019.82 ± 0.88	1021.87 ± 0.89	1023.84 ± 0.89	1025.7 ± 0.9	1033.08 ± 0.93	1039.92 ± 0.97	1046.28 ± 1	1052.19 ± 1.1	1057.98 ± 1.1
313.15 K	1012.33 ± 0.86	1014.31 ± 0.87	1016.42 ± 0.87	1018.41 ± 0.88	1020.39 ± 0.89	1027.93 ± 0.92	1034.97 ± 0.95	1041.52 ± 0.99	1047.69 ± 1	1053.46 ± 1.1
318.15 K	1006.72 ± 0.85	1008.86 ± 0.86	1011.01 ± 0.86	1013.1 ± 0.87	1015.13 ± 0.87	1022.87 ± 0.9	1030.04 ± 0.93	1036.74 ± 0.97	1042.96 ± 1	1048.96 ± 1.1
323.15 K	1001.23 ± 0.84	1003.36 ± 0.84	1005.56 ± 0.85	1007.68 ± 0.86	1009.78 ± 0.86	1017.76 ± 0.89	1025.13 ± 0.92	1031.99 ± 0.95	1038.42 ± 0.99	1044.49 ± 1
328.15 K	995.54 ± 0.83	997.8 ± 0.84	1000.11 ± 0.84	1002.34 ± 0.84	1004.46 ± 0.85	1012.65 ± 0.87	1020.17 ± 0.9	1027.16 ± 0.93	1033.75 ± 0.97	1039.99 ± 1
333.15 K	989.91 ± 0.83	992.19 ± 0.83	994.55 ± 0.83	996.87 ± 0.83	999.06 ± 0.84	1007.62 ± 0.86	1015.4 ± 0.89	1022.5 ± 0.92	1029.24 ± 0.95	1035.71 ± 0.99
338.15 K	984.3 ± 0.82	986.71 ± 0.82	989.18 ± 0.83	991.49 ± 0.83	993.65 ± 0.83	1002.34 ± 0.84	1010.27 ± 0.87	1017.75 ± 0.9	1024.55 ± 0.93	1031.04 ± 0.97

CCCCOC(=O)C(C)O (stereo not given) [butyl 2-hydroxypropanoate]
mass density [kg/m3]
Details	100 kPa	2500 kPa	5000 kPa	7500 kPa	10000 kPa	20000 kPa	30000 kPa	40000 kPa	50000 kPa	60000 kPa
283.15 K	992.75 ± 0.83	994.4 ± 0.83	996.14 ± 0.83	997.77 ± 0.84	999.41 ± 0.84	1005.87 ± 0.85	1011.69 ± 0.87	1017.42 ± 0.9	1022.85 ± 0.93	1027.71 ± 0.96
288.15 K	987.86 ± 0.82	989.52 ± 0.83	991.32 ± 0.83	993.09 ± 0.83	994.7 ± 0.83	1001.18 ± 0.84	1007.12 ± 0.86	1012.83 ± 0.88	1018.14 ± 0.91	1023.26 ± 0.94
293.15 K	982.96 ± 0.82	984.69 ± 0.82	986.5 ± 0.82	988.29 ± 0.83	990.02 ± 0.83	996.69 ± 0.84	1002.96 ± 0.85	1008.73 ± 0.87	1014.33 ± 0.89	1019.37 ± 0.92
298.15 K	977.96 ± 0.81	979.83 ± 0.82	981.74 ± 0.82	983.49 ± 0.82	985.26 ± 0.83	992.04 ± 0.83	998.37 ± 0.84	1004.29 ± 0.85	1009.82 ± 0.88	1015.17 ± 0.9
303.15 K	973.09 ± 0.81	974.98 ± 0.81	976.81 ± 0.81	978.72 ± 0.82	980.54 ± 0.82	987.67 ± 0.83	993.96 ± 0.84	1000.06 ± 0.84	1005.69 ± 0.86	1011.27 ± 0.89
308.15 K	967.74 ± 0.8	970.01 ± 0.8	971.95 ± 0.81	973.85 ± 0.81	975.59 ± 0.82	982.84 ± 0.83	989.43 ± 0.84	995.62 ± 0.84	1001.41 ± 0.84	1007.05 ± 0.87
313.15 K	963.05 ± 0.79	965.11 ± 0.8	967.03 ± 0.8	969.06 ± 0.81	970.96 ± 0.81	978.27 ± 0.83	985.03 ± 0.84	991.43 ± 0.84	997.35 ± 0.84	1002.99 ± 0.85
318.15 K	957.98 ± 0.79	960.06 ± 0.79	962.11 ± 0.8	964.16 ± 0.81	966.04 ± 0.81	973.62 ± 0.83	980.42 ± 0.84	986.96 ± 0.84	993.12 ± 0.84	998.83 ± 0.84
323.15 K	952.44 ± 0.78	954.61 ± 0.79	956.73 ± 0.79	958.74 ± 0.8	960.79 ± 0.81	968.64 ± 0.82	975.86 ± 0.84	982.37 ± 0.84	988.47 ± 0.85	994.3 ± 0.84
328.15 K	947.31 ± 0.78	949.44 ± 0.78	951.63 ± 0.79	953.79 ± 0.8	955.86 ± 0.8	963.73 ± 0.82	971.08 ± 0.84	977.8 ± 0.85	984.21 ± 0.85	990.17 ± 0.85
333.15 K	942.28 ± 0.77	944.52 ± 0.78	946.72 ± 0.79	948.91 ± 0.79	951.02 ± 0.8	959.28 ± 0.82	966.7 ± 0.84	973.8 ± 0.85	980.2 ± 0.85	986.43 ± 0.85
338.15 K	937.09 ± 0.76	939.39 ± 0.77	941.78 ± 0.78	943.99 ± 0.79	946.05 ± 0.79	954.42 ± 0.82	962.07 ± 0.84	969.19 ± 0.85	975.64 ± 0.86	982.05 ± 0.86

COC(=O)C(C)O (stereo not given) [methyl 2-hydroxypropanoate]
mass density [kg/m3]
Details	100 kPa	2500 kPa	5000 kPa	7500 kPa	10000 kPa	20000 kPa	30000 kPa	40000 kPa	50000 kPa	60000 kPa
283.15 K	1104.41 ± 1.1	1106 ± 1.1	1107.57 ± 1.1	1109.14 ± 1.1	1110.68 ± 1.1	1116.59 ± 1.2	1122.23 ± 1.2	1127.45 ± 1.3	1132.48 ± 1.4	1137.4 ± 1.4
288.15 K	1098.86 ± 1	1100.48 ± 1.1	1102.13 ± 1.1	1103.77 ± 1.1	1105.31 ± 1.1	1111.55 ± 1.2	1117.27 ± 1.2	1122.78 ± 1.3	1127.98 ± 1.4	1132.78 ± 1.4
293.15 K	1093.31 ± 1	1094.99 ± 1	1096.72 ± 1.1	1098.35 ± 1.1	1099.92 ± 1.1	1106.2 ± 1.1	1112.08 ± 1.2	1117.65 ± 1.3	1122.93 ± 1.3	1128.01 ± 1.4
298.15 K	1087.76 ± 1	1089.42 ± 1	1091.21 ± 1	1092.88 ± 1.1	1094.57 ± 1.1	1101.03 ± 1.1	1107.23 ± 1.2	1112.83 ± 1.2	1118.24 ± 1.3	1123.43 ± 1.4
303.15 K	1082.13 ± 1	1083.92 ± 1	1085.75 ± 1	1087.5 ± 1	1089.23 ± 1.1	1095.82 ± 1.1	1101.97 ± 1.2	1107.9 ± 1.2	1113.44 ± 1.3	1118.66 ± 1.4
308.15 K	1076.53 ± 1	1078.32 ± 1	1080.19 ± 1	1082 ± 1	1083.79 ± 1	1090.68 ± 1.1	1097.03 ± 1.1	1102.99 ± 1.2	1108.63 ± 1.3	1114.02 ± 1.3
313.15 K	1070.85 ± 0.98	1072.76 ± 0.99	1074.65 ± 1	1076.52 ± 1	1078.39 ± 1	1085.28 ± 1.1	1091.84 ± 1.1	1097.99 ± 1.2	1103.74 ± 1.2	1109.24 ± 1.3
318.15 K	1065.11 ± 0.97	1067.04 ± 0.98	1068.97 ± 0.99	1070.94 ± 1	1072.77 ± 1	1080.09 ± 1.1	1086.77 ± 1.1	1093.08 ± 1.2	1098.93 ± 1.2	1104.49 ± 1.3
323.15 K	1059.39 ± 0.96	1061.4 ± 0.97	1063.43 ± 0.98	1065.44 ± 0.99	1067.34 ± 1	1074.67 ± 1.1	1081.41 ± 1.1	1088 ± 1.2	1094.04 ± 1.2	1099.76 ± 1.3
328.15 K	1053.63 ± 0.95	1055.7 ± 0.96	1057.77 ± 0.97	1059.74 ± 0.98	1061.8 ± 0.99	1069.41 ± 1	1076.5 ± 1.1	1083.15 ± 1.1	1089.4 ± 1.2	1095.07 ± 1.3
333.15 K	1047.83 ± 0.94	1049.97 ± 0.94	1052.16 ± 0.95	1054.23 ± 0.96	1056.23 ± 0.97	1064.05 ± 1	1071.33 ± 1.1	1078.01 ± 1.1	1084.39 ± 1.2	1090.37 ± 1.2
338.15 K	1042 ± 0.92	1044.15 ± 0.93	1046.35 ± 0.94	1048.52 ± 0.95	1050.63 ± 0.96	1058.63 ± 1	1066.13 ± 1.1	1073.12 ± 1.1	1079.74 ± 1.2	1085.76 ± 1.2
